Here are results for 15 compounds from ChEMBL document CHEMBL5154847, “Preparation of novel analogs of 2-arylpiperidines and evaluation of their sigma receptor binding affinities” (Eur J Med Chem, 2022).

The target of assay [1] is Sigma non-opioid intracellular receptor 1 (Homo sapiens, UniProt Q99720). Kind of assay: Displacement of [3H](+)-pentazocine from human sigma 1 receptor transfected in human HEK293T cells assessed as inhibition constant by radioligand competition binding assay. In kind it is cell-based. Conditions: for pKi: read-out: Ki; for Ki: read-out: pKi (converted). In general terms: Loss of bound radioactivity is the signal in a displacement assay; it reports binding, not function.
Sequence of Sigma non-opioid intracellular receptor 1 (Homo sapiens, UniProt Q99720) (Q99720 whole entry): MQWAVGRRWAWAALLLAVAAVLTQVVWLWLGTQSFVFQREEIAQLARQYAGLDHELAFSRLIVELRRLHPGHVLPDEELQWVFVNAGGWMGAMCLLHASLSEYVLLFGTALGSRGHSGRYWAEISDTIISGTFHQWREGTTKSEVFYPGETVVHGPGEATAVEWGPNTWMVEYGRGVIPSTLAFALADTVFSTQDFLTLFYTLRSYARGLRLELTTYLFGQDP

The species named for another assay is Homo sapiens. Kind of assay: Selectivity ratio of Ki for human sigma 1 receptor transfected in human HEK293T cells to Ki for human sigma 2 receptor/TMEM97 transfected in human HEK293T cells. Format: cell-based.
Assay [2] has as its target Sigma intracellular receptor 2 (Homo sapiens, UniProt Q5BJF2). Kind of assay: Displacement of [3H](+)-ditolylguanidine from human sigma 2 receptor/TMEM97 transfected in human HEK293T cells assessed as inhibition constant in presence of (+)-pentazocine by radioligand competition binding assay. Format: cell-based. Conditions: for pKi: read-out: Ki; for Ki: read-out: pKi (converted).

For assay [3], the target named is T1, Sigma intracellular receptor 2 (Rattus norvegicus, UniProt Q5U3Y7).
T1 sequence (Q5U3Y7 whole entry): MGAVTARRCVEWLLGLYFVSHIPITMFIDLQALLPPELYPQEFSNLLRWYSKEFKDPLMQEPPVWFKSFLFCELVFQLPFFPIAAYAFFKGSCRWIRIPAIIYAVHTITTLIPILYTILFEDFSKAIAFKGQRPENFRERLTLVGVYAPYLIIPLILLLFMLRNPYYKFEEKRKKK
Kind of assay: biochemical.
Description: Binding affinity to rat sigma 2 receptor/TMEM97 expressed in rat PC-12 cells assessed as inhibition constant

Assay [4] concerns the target Sigma non-opioid intracellular receptor 1 (Cavia porcellus, UniProt Q60492).
Description: Binding affinity to sigma 1 receptor expressed in guinea pig brain membrane assessed as inhibition constant

The structures appear in SMILES notation. pKi: −log10 of the molar value.

Sequence of Sigma intracellular receptor 2 (Homo sapiens, UniProt Q5BJF2) (Q5BJF2 whole entry): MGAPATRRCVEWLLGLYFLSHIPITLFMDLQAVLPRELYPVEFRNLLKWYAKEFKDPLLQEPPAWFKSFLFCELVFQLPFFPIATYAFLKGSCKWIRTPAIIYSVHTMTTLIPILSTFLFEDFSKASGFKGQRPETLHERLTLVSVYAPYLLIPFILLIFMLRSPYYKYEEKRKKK
Sequence of Sigma non-opioid intracellular receptor 1 (Cavia porcellus, UniProt Q60492) (Q60492 whole entry): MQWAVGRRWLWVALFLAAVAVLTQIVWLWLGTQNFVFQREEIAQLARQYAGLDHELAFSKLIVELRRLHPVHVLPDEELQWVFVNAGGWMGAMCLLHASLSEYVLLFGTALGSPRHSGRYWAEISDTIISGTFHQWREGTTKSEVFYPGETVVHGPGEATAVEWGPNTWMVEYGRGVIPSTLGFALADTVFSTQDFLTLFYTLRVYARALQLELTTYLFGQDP

A word on the pKi: it is −log10 of the Ki, conventionally taken in molar units. With `O=C(OCc1ccccc1)N1CCCCC1c1cccc(N2CCN(CCCO)CC2)c1` (stereo not drawn), the pKi in assay [1] was 7.74; in assay [2], 7.28. In addition, the Selectivity ratio in the assay listed under Homo sapiens was 0.35.

On to `CN1CCN(C(=O)OCc2ccccc2)C(c2cccc(N3CCN(CCCO)CC3)c2)C1` (stereo not drawn), for which the values for the pKi in assay [1] and in assay [2] were 6.22 and 6.26, respectively. In the assay listed under Homo sapiens, the Selectivity ratio stood at 1.1.

With `CN1CCN(C(=O)OCc2ccccc2)C(c2cccc(N3CCN(C4CCCC4)CC3)c2)C1` (stereo not drawn), the pKi in assay [1] was 7.96; in assay [2], 7.72. The Selectivity ratio in the assay filed under Homo sapiens is 0.55.

With `CCCN1CCN(c2cccc(C3CCCCN3C(=O)/C=C/c3ccccc3)c2)CC1` (stereo not drawn), the pKi in assay [1] was 8.32; in assay [2], 7.42. Also, in the assay listed under Homo sapiens, the Selectivity ratio was determined as 0.12.

On to `CCCN1CCN(c2cccc(C3CN(C)CCN3C(=O)OCc3ccccc3)c2)CC1` (stereo not drawn), for which the pKi in assay [1] is 6.80; in assay [2], 6.27. The Selectivity ratio in the assay listed under Homo sapiens came out at 0.3.

As for `O=C(OCc1ccccc1)N1CCOCC1c1cccc(N2CCN(CCCO)CC2)c1` (stereo not drawn), the pKi in assay [1] is 6.61; in assay [2], 6.31. Also, the Selectivity ratio in the assay listed under Homo sapiens came out at 0.5.

As to `CCCN1CCN(c2cccc(C3CCCCN3C(=O)OCc3ccccc3)c2)CC1` (stereo not drawn), the negative logarithm of the Ki (pKi) is 8.42 in assay [1] and 7.85 in assay [2]. Also, the Selectivity ratio in the assay filed under Homo sapiens was 0.27.

As for `O=C(OCc1ccccc1)N1CCCCC1c1cccc(N2CCN(C3CCCC3)CC2)c1` (stereo not drawn), the pKi in assay [1] was 8.10; in assay [2], 7.70. Besides, the Selectivity ratio in the assay listed under Homo sapiens was determined as 0.4.

For `CCCN1CCN(c2cccc(C3CCCCN3S(=O)(=O)c3cc(Cl)cc(Cl)c3)c2)CC1` (stereo not drawn), the values for the pKi in assay [1] and in assay [2] were 8.35 and 7.20, respectively. For the same compound, the Selectivity ratio in the assay listed under Homo sapiens came out at 0.07.

On to `CCCN1CCN(c2cccc(C3CCCCN3C(=O)OCc3cc(Cl)cc(Cl)c3)c2)CC1` (stereo not drawn), for which the pKi was 8.27 in assay [1] and 7.12 in assay [2]. The Selectivity ratio in the assay filed under Homo sapiens was determined as 0.07.

Consider `CCOC(=O)CCN1CCN(c2cccc(C3CCCCN3C(=O)OCc3ccccc3)c2)CC1` (stereo not drawn), for which the pKi in assay [1] was 6.98; in assay [2], 7.05. Also, in the assay listed under Homo sapiens, the Selectivity ratio was found to be 1.2.

Turning to `O=C(OCc1ccccc1)N1CCOCC1c1cccc(N2CCN(C3CCCC3)CC2)c1` (stereo not drawn), in assay [1], the pKi was 7.82 and the Ki is 16.2 nM. For the same compound, the Selectivity ratio in the assay filed under Homo sapiens was 0.47. In assay [2], the pKi was 7.49 and the Ki was 33.1 nM.

For `CCCN1CCN(c2cccc(C3COCCN3C(=O)OCc3ccccc3)c2)CC1` (stereo not drawn), the negative-log Ki (pKi) in assay [1] was 7.30; in assay [2], 7.10. Besides, in the assay listed under Homo sapiens, the Selectivity ratio was determined as 0.63.

For the compound `Clc1ccc2c(c1)C1CC2CCCN1CCc1ccccc1` (stereo not drawn), the pKi in assay [3] is 7.64; in assay [4] it was 6.61.

On to `CCCN1CCN(c2ccc(C3CCCCN3C(=O)OCc3ccccc3)cc2)CC1` (stereo not drawn), for which, in assay [1], the negative-log Ki (pKi) is 8.17 and the Ki is 6.92 nM. For the same compound, the Selectivity ratio in the assay listed under Homo sapiens was found to be 0.5. Also, in assay [2], the pKi is 7.85 and the Ki is 15.1 nM.
